The source of these data is article PMC6072853 (Frontiers in Pharmacology, 2018).

A value given as a limit tells only on which side of the number the result lay.

What all share (assay type): cell-based, human
For test [1], the system named is MRC-5. Kind of test: MTT assay, non-cancerous fibroblasts MRC-5. Conditions: Homo sapiens, MRC5, 72 h, read-out: Growth inhibition (%) ± SEM. From the text:
(§1) Gynecological cancer cell lines, including ovarian (A2780), cervical (HeLa), and breast cancer cell lines (MCF7, T47D, MDA-MB-231, and MDA-MB-361) were purchased from the European Collection of Authenticated Cell Cultures (ECACC, Salisbury, United Kingdom). Additional cervical cell lines (SiHa and C33A) and a non-cancerous immortalized, mammary gland epithelial cell line (hTERT-HME1) were purchased from LGC Standards GmbH (Wesel, Germany). Non-cancerous fibroblast cells (MRC-5) were also obtained from the ECACC. All cells were cultured in minimal essential medium supplemented with 10% fetal bovine serum, 1% non-essential amino acids, and 1% antibiotic-antimycotic mixture, in humidified air containing 5% CO2 at 37°C. Immortalized hTERT-HME1 cells were maintained in serum-free mammary epithelial cell growth medium (MEGM) supplemented with insulin, human epidermal growth factor (hEGF), hydrocortisone, bovine pituitary extract, and an antibiotic-antimycotic mixture. All the medium and supplements were purchased from Lonza Group Ltd. (Basel, Switzerland).
(§2) The antiproliferative properties of the compounds were assessed by an MTT assay ([Mosmann, 1983]). Cells were seeded onto 96-well microplates at a density of 10,000 cells/well (MDA-MB-361 and C33A) or 5,000 cells/well (all other cell lines). After an overnight incubation, fresh medium containing the test compounds (at a concentration of 10 or 30 μM) was added. After incubation for 72 h at 37°C in humidified air, [3-(4,5-dimethylthiazol-2-yl)-2,5-diphenyltetrazolium bromide] (MTT) solution (5 mg/mL) was added. Purple formazan crystals were formed by the living cells during a 4 h contact period, which were assayed by spectrophotometry after having been dissolved in 100 μL DMSO. Untreated cells served as control, and cisplatin (CIS) (Ebewe Pharma GmbH, Unterach, Austria) was used as a reference compound. […] Two independent measurements were performed with five parallel wells. To present preliminary data concerning tumor selectivity of the potent compounds, the procedure was repeated on MRC-5 fibroblast and hTERT-HME1 immortalized mammary gland epithelial cells under the same experimental conditions.
Background: Tetrazolium dyes change colour on reduction, which living cells bring about.

Test [2] has as its system SiHa. Nature of the test: MTT antiproliferative assay, SiHa. Conditions: Homo sapiens, 72 h, read-out: Growth inhibition (%) ± SEM.
Source text: as §1, §2

In test [3] the test system is T47D. Nature of the test: MTT antiproliferative assay, T47D. Conditions: Homo sapiens, 72 h, read-out: Growth inhibition (%) ± SEM.
Source text: as §1, §2

For test [4], the system named is HeLa. Nature of the test: MTT antiproliferative assay, HeLa. Conditions: Homo sapiens, 72 h; for inhibition at 10 µM / inhibition at 30 µM: read-out: Growth inhibition (%) ± SEM.
Source text: as §1, §2

Test [5] deals with A2780. Kind of test: MTT antiproliferative assay, A2780. Conditions: Homo sapiens, 72 h, read-out: Growth inhibition (%) ± SEM; for inhibition at 10 µM: A2780, 10 μM; for inhibition at 30 µM: A2780, 30 μM.
Source text: as §1, §2

The test system of test [6] is C33A. Nature of the test: MTT antiproliferative assay, C33A. Conditions: Homo sapiens, C-33-A, 72 h, read-out: Growth inhibition (%) ± SEM.
Source text: as §1, §2

Test [7] concerns MCF-7. Nature of the test: MTT antiproliferative assay, MCF-7. Conditions: Homo sapiens, MCF7, 72 h, read-out: Growth inhibition (%) ± SEM; for inhibition at 10 µM: MCF-7, 10 μM; for inhibition at 30 µM: MCF-7, 30 μM.
Source text: as §1, §2

The subject of test [8] is MDA-MB-361. Nature of the test: MTT antiproliferative assay, MDA-MB-361. Conditions: Homo sapiens, 72 h, read-out: Growth inhibition (%) ± SEM; for inhibition at 10 µM: MDA-MB-361, 10 μM; for inhibition at 30 µM: MDA-MB-361, 30 μM.
Source text: as §1, §2

Test [9] has as its system MDA-MB-231. Kind of test: MTT antiproliferative assay, MDA-MB-231. Conditions: Homo sapiens, 72 h, read-out: Growth inhibition (%) ± SEM; for inhibition at 10 µM: MDA-MB-231, 10 μM; for inhibition at 30 µM: MDA-MB-231, 30 μM.
Source text: as §1, §2

For `C[C@]12CC[C@H]3[C@@H](CCC4=CC(=O)CC[C@@H]43)[C@@H]1CC[C@H]2I` [Compound 5], the inhibition at 10 µM in test [1] (MRC-5, 10 μM) was 13.1 ± 1.9%; in [2], less than 20%; in test [3], less than 20%; in test [4] it was 95.2 ± 0.4%; in test [5], 27.7 ± 1.3%; in [6], less than 20%. The inhibition at 10 µM in test [7], in [8] and in test [9] was less than 20% in each case. The inhibition at 30 µM in test [1] (MRC-5, 30 μM) was 13.8 ± 2%; in [2] it was less than 20%; in test [3], less than 20%; in test [4] it was 95.8 ± 0.2%; in test [5], 61.6 ± 1.8%; in [6], less than 20%. For the same compound, the inhibition at 30 µM in test [7], in test [8] and in test [9] was less than 20% each time. In addition, the IC50 in test [4] (read-out: calculated IC50 value) was 1.49 µM.

`C[C@]12CC[C@H]3[C@@H](CCC4=CC(=O)CC[C@@H]43)[C@@H]1CC[C@H]2OC(=O)c1ccc([N+](=O)[O-])cc1[N+](=O)[O-]` [Compound 6, 17α-19-nortestosterone-17-yl 2′,4′-dinitrobenzoate]: the inhibition at 10 µM in [2] was less than 20%; in test [3], less than 20%; in [4], 32 ± 2.9%; in test [5], less than 20%; in test [6], less than 20%; in test [7], less than 20%. The inhibition at 10 µM in test [8] and in test [9] was less than 20% throughout. Besides, the inhibition at 30 µM was less than 20% in test [2]; 47.2 ± 2.6% in [3]; 26.5 ± 2.3% in test [4]; 31.9 ± 2.6% in test [5]; less than 20% in test [6]; 35.9 ± 1.4% in test [7]. Besides, the inhibition at 30 µM in [8] and in test [9] was less than 20% throughout.

`C[C@]12CC[C@H]3[C@@H](CCC4=CC(=O)CC[C@@H]43)[C@@H]1CC[C@H]2OC(=O)c1cc([N+](=O)[O-])cc([N+](=O)[O-])c1` [Compound 7, 17α-19-nortestosterone-17-yl 3′,5′-dinitrobenzoate]: the inhibition at 10 µM was less than 20% in test [2]; less than 20% in test [3]; 26.6 ± 1.8% in [4]; 49.2 ± 0.9% in [5]; less than 20% in [6]; 25.9 ± 3.1% in [7]. Also, the inhibition at 10 µM in [8] and in test [9] was less than 20% each time. The inhibition at 30 µM was less than 20% in test [2]; less than 20% in [3]; 21.5 ± 1.9% in test [4]; 58.1 ± 2% in test [5]; less than 20% in test [6]; 37.7 ± 3.4% in [7]. Also, the values for the inhibition at 30 µM in test [8] and in [9] were 22 ± 1.6% and less than 20%, respectively.

In general, inhibition refers to the relative decrease from the control value, in per cent. The term IC50 denotes the concentration needed to halve the response being measured.
